According to the NIST ThermoML archive (doi:10.1021/je0502851):
± gives the expanded uncertainty stated by the source.

Legend:
[1] = Molar enthalpy of transition or fusion; details: Crystal; DSC
[2] = Crystal; DTA

SMILES | Molar enthalpy of transition or fusion [1] [kcal/mol] | Normal melting temperature [2] [°C]
NCCCCCCN [1,6-hexanediamine] | 9.41 ± 0.263 | 38.5 ± 0.53
NCCCCCCCCN [1,8-diaminooctane] | 12.1 ± 0.359 | 51.73 ± 0.53
NCCCCCCCCCCCCN [1,12-dodecanediamine] | 16 ± 0.359 | 68.69 ± 0.53
c1ccc2ccccc2c1 [naphthalene] | 4.67 ± 0.215 | 81.54 ± 0.53
